Measured values taken from patent US4118561A, “7-(Substituted)-7H-pyrrolo[3,2-f]quinazoline-1,3-diamines” (priority 1977, dated 1978).
≈ marks a conversion by molar mass, not a printed value. Read-outs that look alike come from different tables or passages of the source.

Legend:
[1] = test system: S. aureus Smith; experiment: In vitro antibacterial activity (MIC), S. aureus Smith; conditions: Staphylococcus aureus, 18 h
[2] = test system: K. pneumoniae 10031; experiment: In vitro antibacterial activity (MIC), K. pneumoniae 10031; conditions: Klebsiella pneumoniae, 10031, 18 h
[3] = test system: E. coli 9637; experiment: In vitro antibacterial activity (MIC), E. coli 9637; conditions: Escherichia coli, 9637, 18 h
[4] = test system: S. paratyphi 11737; experiment: In vitro antibacterial activity (MIC), S. paratyphi 11737; assay type: cell-based; conditions: Salmonella enterica, 18 h
[5] = test system: N. catarrhalis 8193; experiment: In vitro antibacterial activity (MIC), N. catarrhalis 8193; conditions: 18 h
[6] = Antimalarial blood schizonticidal test in mice; assay type: in vivo, Plasmodium berghei (infected ICR/HA Swiss mice); design: ΔMST (increase in mean survival time): unit: days; conditions: mouse, in vivo, sc, single dose, read-out: Highest Non-Lethal Dose
Description: (§1) In addition, the invention provides compounds which have antimalarial activity in vivo as evidenced by a standard blood schizonticidal test in mice infected with Plasmodium berghei KBG 173.
(§2) Utilizing young ICR/HA Swiss mice and a standard inoculum of Plasmodium berghei KBG 173, it is possible to produce a uniform disease fatal to 100% of untreated animals within 6 to 8 days with a mean survival time of 6.2 days. Test animals weigh from 18 to 22 grams but weight variations in any given experimental or control group are confined to 2-3 grams. All animals in any given test are approximately of the same age. Animals on test are housed in metal-topped plastic cages, given a standard laboratory diet and water ad libitum.
(§3) Test animals receive an intraperitoneal injection of 0.5 ml. of 1:100 dilution of heparinized heart's blood with a minimum of 90% parasitized cells (4 × 10^7 cells), drawn from donor mice infected one week earlier with Plasmodium berghei. The donor strain is maintained by weekly passages in separate groups of mice inoculated with a 0.5 ml. of 1:500 dilution of heparinized heart's blood.
(§4) Test compounds are administered after dissolution or suspension in peanut oil. A single dose is given subcutaneously 72 hours after the mice are infected with Plasmodium berghei. At this time a 10-15 percent parasitemia has developed; the disease is well established but has not produced sufficient debility to alter the response of the host to toxic effects of the drug on test. Since treatment is withheld for three days to permit the infection to become well established and death occurs in untreated controls within 6-8 days, it is felt that this system presents a candidate compound with the maximum challenge. In order to check factors such as changes in the infectivity of Plasmodium berghei or in the susceptibility of the host or to detect technical errors, a group of infected animals treated with pyrimethamine at dose levels producing definite increases in survival time is included in a positive control in every experiment.
(§5) In each experiment test compounds are administered in graded dosages. […] However, if an active drug is toxic for the host, its toxicity may become a limiting factor; continued increases in dose levels also increase the toxic effects and may result in the diminution of survival times. Deaths prior to the sixth day, when untreated controls begin to die, are regarded as nonparasitic and become the basis for toxicity evaluations. […] In calculating mean survival time, toxic deaths and 60-day survivors are not included.
(§6) Compounds are considered active which produce a cure in at least one test animal or which produce significant increases in mean survival times of the treated animals as compared with the mean survival times of untreated controls, provided that no drug related deaths (toxicity) are noted at the active dose.

[7] = test system: Plasmodium berghei KBG 173; experiment: Antimalarial blood schizonticidal test in mice; assay type: in vivo, Plasmodium berghei (infected ICR/HA Swiss mice); design: ΔMST (increase in mean survival time): unit: days; conditions: for ED100 / minimal effective dose: Plasmodium berghei, sc; for ED100: read-out: Lowest Dose Curing All Mice; for minimal effective dose: read-out: Min. Curing Dose; for Cure/Treat at Min. Curing Dose: at the Min. Curing Dose
Description: as §1, §2, §3, §4, §5, §6

[8] = test system: S. aureus 53-180; experiment: In vitro antibacterial activity (MIC), S. aureus 53-180; conditions: Staphylococcus aureus, 53180, 18 h
[9] = test system: lymphocytic leukemia P-388; experiment: Activity in mice against lymphocytic leukemia P-388; assay type: in vivo; conditions: Mus musculus, P388, ip, read-out: T/C
[10] = test system: P. vulgaris 6896; experiment: In vitro antibacterial activity (MIC), P. vulgaris 6896; conditions: Proteus vulgaris, 6896, 18 h
[11] = infected mice, highest dose with no deaths for any reason
[12] = 1440 h, s.c., single dose, 60-day survivors
[13] = alive on day 14 considered cured, no 60-day data
[14] = 336 h, s.c., single dose, alive on day 14 considered cured, no 60-day data
[15] = s.c., alive on day 14 considered cured

Row | Compound | MIC [1] [µg/mL] | MIC [2] [µg/mL] | MIC [3] [µg/mL] | MIC [4] [µg/mL] | MIC [5] [µg/mL] | MTD [6, 11] [mg/kg] | ED100 [7, 12] [mg/kg] | minimal effective dose [7, 12] [mg/kg] | Cure/Treat at Min. Curing Dose ([7]; s.c., 60-day survivors) | MIC [8] [µg/mL] | MIC [10] [µg/mL] | other results
1 | CCOC(=O)c1ccc(Cn2ccc3c4c(N)nc(N)nc4ccc32)cc1 [Example 17] | 1.95 (≈ 5.4 µM) | 1.95 (≈ 5.4 µM) | 7.81 (≈ 21.6 µM) | > 250 | 0.488 (≈ 1.35 µM) | 80 | 20 | 10 | 1/5 | 1.95 (≈ 5.4 µM) | > 250 | ΔMST (increase in mean survival time) ([7]; s.c., dose 2.5 mg. per kg.): 6.0; response vs control in vivo at 10 mg/kg ([9]; mice, I.P., 10 mg/kg): 141%
2 | Nc1nc(N)c2c(ccc3c2ccn3Cc2cccc([N+](=O)[O-])c2)n1 [Example 18, 7-[(3-nitrophenyl)methyl]-7H-pyrrolo[3,2-f]quinazoline-1,3-diamine] | 0.122 (≈ 0.365 µM) | 0.122 (≈ 0.365 µM) | 0.488 (≈ 1.46 µM) | 0.976 (≈ 2.92 µM) | 0.0152 (≈ 0.0455 µM) | 40 | 10 | 2.5 | 3/5 | 0.061 (≈ 0.182 µM) | 3.9 (≈ 11.7 µM) | ΔMST (increase in mean survival time) ([7]; s.c., dose 2.5 mg. per kg.): 7.4; response vs control in vivo at 5 mg/kg ([9]; mice, I.P.): 163%
3 | Cc1ccc(Cn2ccc3c4c(N)nc(N)nc4ccc32)cc1 [Example 21] | 0.976 (≈ 3.22 µM) | 0.122 (≈ 0.402 µM) | 0.976 (≈ 3.22 µM) | 1.95 (≈ 6.43 µM) | 0.0152 (≈ 0.0501 µM) | 160 | 20 | 10 | 2/5 | 0.488 (≈ 1.61 µM) | 1.95 (≈ 6.43 µM) | ΔMST (increase in mean survival time) ([7]; s.c., dose 5 mg. per kg.): 7.5; response vs control in vivo at 10 mg/kg [9]: 138%
4 | Cc1ccc(Cn2ccc3c4c(N)nc(N)nc4ccc32)cc1C [Example 25] | 1.95 (≈ 6.14 µM) | 0.488 (≈ 1.54 µM) | 1.95 (≈ 6.14 µM) | 31.3 (≈ 98.6 µM) | 0.122 (≈ 0.384 µM) |  |  |  |  | 0.976 (≈ 3.08 µM) | 62.5 (≈ 197 µM) | MTD [6, 13]: 80 mg/kg; ED100 [7, 14]: 10 mg/kg; minimal effective dose [7, 14]: 5 mg/kg; Cure/Treat at Min. Curing Dose [7, 15]: 2/5; ΔMST (increase in mean survival time) ([7]; s.c., dose 2.5 mg. per kg., alive on day 14 considered cured, no 60-day data): 6.5; response vs control in vivo at 10 mg/kg ([9]; mice, I.P., 10 mg/kg): 139%
5 | CC(C)(C)c1ccc(Cn2ccc3c4c(N)nc(N)nc4ccc32)cc1 [Example 30] | 7.81 (≈ 22.6 µM) | 3.9 (≈ 11.3 µM) | 250 (≈ 724 µM) | > 250 | 0.976 (≈ 2.83 µM) |  |  |  |  | 3.9 (≈ 11.3 µM) | > 250 | response vs control in vivo at 5 mg/kg ([9]; mice, I.P.): 125%
6 | COc1ccc(Cn2ccc3c4c(N)nc(N)nc4ccc32)cc1OC [Example 37] | 0.244 (≈ 0.698 µM) | 0.061 (≈ 0.175 µM) | 0.488 (≈ 1.4 µM) | 1.95 (≈ 5.58 µM) | 0.0152 (≈ 0.0435 µM) | 80 | 20 | 10 | 1/5 | 0.122 (≈ 0.349 µM) | 1.95 (≈ 5.58 µM) | ΔMST (increase in mean survival time) ([7]; s.c., dose 2.5 mg. per kg.): 6.9; response vs control in vivo at 10 mg/kg ([9]; mice, I.P., 10 mg/kg): 174%
7 | COc1cc(Cn2ccc3c4c(N)nc(N)nc4ccc32)cc(OC)c1OC [Example 39] | 0.122 (≈ 0.322 µM) | 0.122 (≈ 0.322 µM) | 0.976 (≈ 2.57 µM) | 3.9 (≈ 10.3 µM) | 0.0152 (≈ 0.0401 µM) | 160 |  |  | 2/5 | 0.061 (≈ 0.161 µM) | 7.81 (≈ 20.6 µM) | ED100 ([7]; 1440 h): 160 mg/kg; minimal effective dose ([7]; 1440 h): 40 mg/kg; ΔMST (increase in mean survival time) ([7]; s.c., dose 20 mg. per kg.): 7.1; response vs control in vivo at 10 mg/kg [9]: 163%
8 | Nc1nc(N)c2c(ccc3c2ccn3Cc2ccncc2)n1 [Example 45] | 0.122 (≈ 0.42 µM) | 0.122 (≈ 0.42 µM) | 0.244 (≈ 0.84 µM) | 0.488 (≈ 1.68 µM) | 0.0038 (≈ 0.0131 µM) |  |  | 80 | 3/5 | 0.122 (≈ 0.42 µM) | 0.488 (≈ 1.68 µM) | ΔMST (increase in mean survival time) ([7]; s.c., dose 40 mg. per kg.): 9.7; response vs control in vivo at 15 mg/kg ([9]; mice, I.P., 15 mg/kg): 142%
9 | CC(=O)c1ccc(Cn2ccc3c4c(N)nc(N)nc4ccc32)cc1 [Example 61, 7-[(4-Acetylphenyl)methyl]-7H-pyrrolo[3,2-f]-quinazoline-1,3-diamine] | 0.244 (≈ 0.736 µM) | 0.061 (≈ 0.184 µM) | 0.488 (≈ 1.47 µM) | 0.976 (≈ 2.95 µM) | 0.0076 (≈ 0.0229 µM) | 40 | 20 | 2.5 | 4/5 | 0.122 (≈ 0.368 µM) | 1.95 (≈ 5.88 µM) | ΔMST (increase in mean survival time) ([7]; s.c., dose 5 mg. per kg.): 12.0
10 | CS(=O)(=O)c1ccc(Cn2ccc3c4c(N)nc(N)nc4ccc32)cc1 [Example 63, 7-[(4-Methylsulfonylphenyl)methyl]-7H-pyrrolo[3,2-f]quinazoline-1,3-diamine] | 0.122 (≈ 0.332 µM) | 0.122 (≈ 0.332 µM) | 0.976 (≈ 2.66 µM) | 0.976 (≈ 2.66 µM) | 0.0152 (≈ 0.0414 µM) |  |  | 10 | 1/5 | 0.122 (≈ 0.332 µM) | 7.81 (≈ 21.3 µM) | ΔMST (increase in mean survival time) ([7]; s.c., dose 5 mg. per kg.): 6.5; response vs control in vivo at 10 mg/kg ([9]; mice, I.P., 10 mg/kg): 136%
11 | Nc1nc(N)c2c(ccc3c2ccn3Cc2ccc(OC(F)(F)F)cc2)n1 [Example 64, 7-[(4-Trifluoromethoxyphenyl)methyl]-7H-pyrrolo[3,2-f]quinazoline-1,3-diamine] | 0.976 (≈ 2.61 µM) | 0.122 (≈ 0.327 µM) | 3.9 (≈ 10.4 µM) | 62.5 (≈ 167 µM) | 0.031 (≈ 0.083 µM) | 10 | 10 | 2.5 | 2/5 | 0.244 (≈ 0.654 µM) | 62.5 (≈ 167 µM) | ΔMST (increase in mean survival time) ([7]; s.c., dose 1.25 mg. per kg.): 9.6
12 | Nc1nc(N)c2c(ccc3c2ccn3-c2ccc([N+](=O)[O-])cc2)n1 [Example 77] | 3.9 (≈ 12.2 µM) | 0.976 (≈ 3.05 µM) | 7.81 (≈ 24.4 µM) | 62.5 (≈ 195 µM) | 0.031 (≈ 0.0968 µM) | 640 | 640 | 160 | 5/5 | 3.9 (≈ 12.2 µM) | 250 (≈ 780 µM) | ΔMST (increase in mean survival time) ([7]; s.c., dose 40 mg. per kg.): 28.3
13 | Cc1cc(-n2ccc3c4c(N)nc(N)nc4ccc32)ccc1[N+](=O)[O-] [Example 80] | 62.5 (≈ 187 µM) | 0.976 (≈ 2.92 µM) | > 250 | > 250 | 0.0152 (≈ 0.0455 µM) | 640 | 640 | 640 | 5/5 | 7.81 (≈ 23.4 µM) | > 250 | ΔMST (increase in mean survival time) ([7]; s.c., dose 160 mg. per kg.): 13.9
14 | Cc1ccc(C)c(Cn2c(C)cc3c4c(N)nc(N)nc4ccc32)c1 [Example 103] | 31.3 (≈ 94.4 µM) | 15.6 (≈ 47.1 µM) | 250 (≈ 754 µM) | > 250 | 1.95 (≈ 5.88 µM) |  |  |  |  | 7.81 (≈ 23.6 µM) | > 250 | MTD [6, 13]: 80 mg/kg; ED100 [7, 14]: 5 mg/kg; minimal effective dose [7, 14]: 1.25 mg/kg; Cure/Treat at Min. Curing Dose [7, 15]: 1/5; ΔMST (increase in mean survival time) ([7]; s.c., dose 1.25 mg. per kg., alive on day 14 considered cured, no 60-day data): 6.8
